Measured values as given in paper PMC12613848, “First in human phase 1 study of DT2216, a selective BCL-xL degrader, in patients with relapsed/refractory solid malignancies” (Journal of Hematology & Oncology, 2025).
Entries after “also recorded” stand apart in the source; their conditions may differ. Where two headings read alike, the source gives them in different places.

Assay: Plasma pharmacokinetics of DT2216 in patients, phase 1 dose escalation
Type: in vivo, human
Conditions: for ArAUC0−24 (accumulation ratio) / Vd / clearance / half-life / AUC(0-t) / AUC(0-inf) / Cmax / Tmax: plasma; for Vd / clearance / half-life / AUC(0-t) / AUC(0-inf) / Cmax / Tmax: human; for AUC(0-inf): read-out: AUC0−∞; for Cmax: read-out: Cmax; for Tmax: median (min, max)
Experimental: Dose escalation consisted of the administration of DT2216 intravenously twice weekly at several different doses outlined in protocol attached. The starting dose was 0.04 mg/kg, established based on pre-clinical toxicity studies. Safety was evaluated using CTCAE version 5.0. The initial three dose levels enrolled one patient, following which for dose level 4 and 5, a 3 + 3 design was utilized following a 100% incremental dose increase for dose levels 2 to 5 until the first dose limiting toxicity (DLT) in cycle 1 was observed. Thereafter, a modified Fibonacci sequence was used to define dose escalation increments until the maximum tolerated dose (MTD) was reached as described in protocol. If no dose-limiting toxicity (DLT) was observed during the DLT monitoring period of first 28 days, the next patient was enrolled at the next higher dose level. Dose-limiting toxicities (DLTs) during the first treatment cycle were defined as any Grade 5 toxicity; Grade 4 neutropenia lasting > 7 days; febrile neutropenia; Grade 4 thrombocytopenia or Grade 3 thrombocytopenia with clinically significant hemorrhage or lasting ≥ 7 days; and Grade ≥ 3 non-hematologic toxicities, excluding nausea, vomiting, or diarrhea lasting ≤ 3 days or transient laboratory abnormalities resolving within 72 h. Hepatotoxicity meeting Hy’s law criteria was also considered a DLT. Transient Grade 3–4 electrolyte abnormalities resolving to ≤ Grade 2 within 72 h were not considered DLTs.
Patients were allowed a maximum of two intra-patient dose escalations. Patients received DT2216 by intravenous infusion on days 1 and 4 weekly for at least 4 weeks, with each cycle consisting of a 28-day cycle for a maximum duration of 1 year until disease progression, unacceptable toxicity, or other withdrawal criteria, as listed in the protocol. The extent of disease was evaluated using imaging studies and disease-appropriate tumor markers every 8 weeks from day 1 of the first cycle. RP2D was established based on MTD as well as other relevant data, including clinical signals of activity, PK, and PD data.
Premedication prior to each infusion was at the discretion of the investigator or according to institutional guidelines. Patient assessment and follow-up procedures can be found in the schedule of assessments in this study. The clinical response was evaluated using RECIST v1.1 per protocol. Blood samples were collected for PK analysis before and after post-infusion at defined intervals, along with platelet counts. Exploratory biomarkers include (but are not limited to) the assessment of BCL-XL and VHL levels in peripheral white blood cells (WBC).
Throughout the course of the dose escalation trial, only one dose-limiting toxicity was observed, with grade 4 thrombocytopenia at a dose level of 0.32 mg/kg. […] The pharmacokinetic parameters of DT2216 were determined in patients following doses on Cycle 1 Day 1 and Cycle 1 Day 22 (Tables 4 and 5). […] AUC0-∞ values ranged from 8650 to 72,300 ng · h/mL over the dose range of 0.04 mg/kg 0.4 mg/kg. […] The volume of distribution at steady state (Vss) was small (< 100 mL/kg) and consistent across the dose groups. Following repeated dosing, accumulation of DT2216 in plasma was not observed with twice weekly dosing, with accumulation ratio values ranging from 0.74 to 1.07 on Cycle 1 Day 22 ([…]) across the dose groups.

[1] = iv, 0.04 mg/kg, Cycle 1 Day 1, 0.04 mg/kg IV, mean (CV%), N = 1
[2] = iv, 0.04 mg/kg, Cycle 1 Day 22, 0.04 mg/kg IV BIW, mean (CV%), N = 1
[3] = iv, 0.08 mg/kg, Cycle 1 Day 1, 0.08 mg/kg IV, mean (CV%), N = 1
[4] = iv, 0.08 mg/kg, Cycle 1 Day 22, 0.08 mg/kg IV BIW, mean (CV%), N = 1
[5] = iv, 0.12 mg/kg, Cycle 1 Day 1, 0.12 mg/kg IV, mean (CV%), N = 1

Cc1ncsc1-c1ccc([C@H](C)NC(=O)[C@@H]2C[C@@H](O)CN2C(=O)[C@@H](NC(=O)CCCCCC(=O)N2CCN(CC[C@H](CSc3ccccc3)Nc3ccc(S(=O)(=O)NC(=O)c4ccc(N5CCN(CC6=C(c7ccc(Cl)cc7)CCC(C)(C)C6)CC5)cc4)cc3S(=O)(=O)C(F)(F)F)CC2)C(C)(C)C)cc1 [DT2216]
dose proportionality of plasma exposure (AUC) (0.04 to 0.4 mg/kg IV BIW): dose proportional with no dose accumulation; also recorded: dose proportional increase in DT2216 exposure | maximum concentration (0.4 BIW dose): 8590 ng/mL | ArAUC0−24 (accumulation ratio) (Cycle 1 Day 22, 0.04 mg/kg IV BIW, mean (CV%), N = 1): 0.90 (N = 1) | ArAUC0−24 (accumulation ratio) (Cycle 1 Day 22, 0.08 mg/kg IV BIW, mean (CV%), N = 1): 0.74 (N = 1) | ArAUC0−24 (accumulation ratio) (Cycle 1 Day 22, 0.12 mg/kg IV BIW, mean (CV%), N = 1): 1.07 (N = 1) | ArAUC0−24 (accumulation ratio) (Cycle 1 Day 22, 0.24 mg/kg IV BIW, mean (CV%), N = 6): 1.08 (11.6) (N = 6) | ArAUC0−24 (accumulation ratio) (Cycle 1 Day 22, 0.32 mg/kg IV BIW, mean (CV%), N = 5): 1.02 (6.7) (N = 5) | ArAUC0−24 (accumulation ratio) (Cycle 1 Day 22, 0.4 mg/kg IV BIW, mean (CV%), N = 4): 1.01 (8.7) (N = 4) | steady state of plasma concentration (based on pre-dose and 2-hour post infusion plasma concentrations): reached by at least Cycle 1, Day 15 | Vd (intravenous, consistent across the dose groups, read-out: volume of distribution at steady state (Vss)): < 0.1 L/kg | clearance (intravenous, over the dose range tested, read-out: clearance values): 0.0683 to 0.132 mL/min/kg | half-life (intravenous, over the dose range tested, independent of dose, read-out: mean half-life): 7.09 to 12.8 h | AUC(0-t) (iv, 0.04 mg/kg, Cycle 1 Day 1, 0.04 mg/kg IV, mean (CV%), N = 1, read-out: AUC0−24): 5920 ng·h/mL | AUC(0-inf) [1]: 8650 ng·h/mL | AUC(0-t) (iv, 0.04 mg/kg, Cycle 1 Day 1, 0.04 mg/kg IV, mean (CV%), N = 1, read-out: AUClast): 8470 ng·h/mL | clearance (iv, 0.04 mg/kg, Cycle 1 Day 1, 0.04 mg/kg IV, mean (CV%), N = 1, read-out: CL (converted)): 0.077 mL/min/kg | Cmax [1]: 738 ng/mL | half-life (iv, 0.04 mg/kg, Cycle 1 Day 1, 0.04 mg/kg IV, mean (CV%), N = 1, read-out: T½ (converted)): 12.8 h | Vd (iv, 0.04 mg/kg, Cycle 1 Day 1, 0.04 mg/kg IV, mean (CV%), N = 1, read-out: Vdss): 0.0776 L/kg | Tmax (iv, 0.04 mg/kg, Cycle 1 Day 1, 0.04 mg/kg IV, N = 1): 0.75 h | AUC(0-t) (iv, 0.04 mg/kg, Cycle 1 Day 22, 0.04 mg/kg IV BIW, mean (CV%), N = 1, read-out: AUC0−24): 5350 ng·h/mL | AUC(0-inf) [2]: 6230 ng·h/mL | AUC(0-t) (iv, 0.04 mg/kg, Cycle 1 Day 22, 0.04 mg/kg IV BIW, mean (CV%), N = 1, read-out: AUClast): 5390 ng·h/mL | clearance (iv, 0.04 mg/kg, Cycle 1 Day 22, 0.04 mg/kg IV BIW, mean (CV%), N = 1, read-out: CL (converted)): 0.107 mL/min/kg | Cmax [2]: 541 ng/mL | half-life (iv, 0.04 mg/kg, Cycle 1 Day 22, 0.04 mg/kg IV BIW, mean (CV%), N = 1, read-out: T½ (converted)): 8.18 h | Vd (iv, 0.04 mg/kg, Cycle 1 Day 22, 0.04 mg/kg IV BIW, mean (CV%), N = 1, read-out: Vdss): 0.081 L/kg | Tmax (iv, 0.04 mg/kg, Cycle 1 Day 22, 0.04 mg/kg IV BIW, N = 1): 2.5 h | AUC(0-t) (iv, 0.08 mg/kg, Cycle 1 Day 1, 0.08 mg/kg IV, mean (CV%), N = 1, read-out: AUC0−24): 13400 ng·h/mL | AUC(0-inf) [3]: 19500 ng·h/mL | AUC(0-t) (iv, 0.08 mg/kg, Cycle 1 Day 1, 0.08 mg/kg IV, mean (CV%), N = 1, read-out: AUClast): 19100 ng·h/mL | clearance (iv, 0.08 mg/kg, Cycle 1 Day 1, 0.08 mg/kg IV, mean (CV%), N = 1, read-out: CL (converted)): 0.0683 mL/min/kg | Cmax [3]: 1450 ng/mL | half-life (iv, 0.08 mg/kg, Cycle 1 Day 1, 0.08 mg/kg IV, mean (CV%), N = 1, read-out: T½ (converted)): 12.5 h | Vd (iv, 0.08 mg/kg, Cycle 1 Day 1, 0.08 mg/kg IV, mean (CV%), N = 1, read-out: Vdss): 0.07 L/kg | Tmax (iv, 0.08 mg/kg, Cycle 1 Day 1, 0.08 mg/kg IV, N = 1): 1.5 h | AUC(0-t) (iv, 0.08 mg/kg, Cycle 1 Day 22, 0.08 mg/kg IV BIW, mean (CV%), N = 1, read-out: AUC0−24): 9840 ng·h/mL | AUC(0-inf) [4]: 11700 ng·h/mL | AUC(0-t) (iv, 0.08 mg/kg, Cycle 1 Day 22, 0.08 mg/kg IV BIW, mean (CV%), N = 1, read-out: AUClast): 9910 ng·h/mL | clearance (iv, 0.08 mg/kg, Cycle 1 Day 22, 0.08 mg/kg IV BIW, mean (CV%), N = 1, read-out: CL (converted)): 0.114 mL/min/kg | Cmax [4]: 962 ng/mL | half-life (iv, 0.08 mg/kg, Cycle 1 Day 22, 0.08 mg/kg IV BIW, mean (CV%), N = 1, read-out: T½ (converted)): 8.63 h | Vd (iv, 0.08 mg/kg, Cycle 1 Day 22, 0.08 mg/kg IV BIW, mean (CV%), N = 1, read-out: Vdss): 0.091 L/kg | Tmax (iv, 0.08 mg/kg, Cycle 1 Day 22, 0.08 mg/kg IV BIW, N = 1): 2.5 h | AUC(0-t) (iv, 0.12 mg/kg, Cycle 1 Day 1, 0.12 mg/kg IV, mean (CV%), N = 1, read-out: AUC0−24): 12900 ng·h/mL | AUC(0-inf) [5]: 18000 ng·h/mL | AUC(0-t) (iv, 0.12 mg/kg, Cycle 1 Day 1, 0.12 mg/kg IV, mean (CV%), N = 1, read-out: AUClast): 17900 ng·h/mL | clearance (iv, 0.12 mg/kg, Cycle 1 Day 1, 0.12 mg/kg IV, mean (CV%), N = 1, read-out: CL (converted)): 0.111 mL/min/kg | Cmax [5]: 3710 ng/mL | half-life (iv, 0.12 mg/kg, Cycle 1 Day 1, 0.12 mg/kg IV, mean (CV%), N = 1, read-out: T½ (converted)): 8.92 h | Vd (iv, 0.12 mg/kg, Cycle 1 Day 1, 0.12 mg/kg IV, mean (CV%), N = 1, read-out: Vdss): 0.0557 L/kg | Tmax (iv, 0.12 mg/kg, Cycle 1 Day 1, 0.12 mg/kg IV, N = 1): 0.75 h | AUC(0-t) (iv, 0.12 mg/kg, Cycle 1 Day 22, 0.12 mg/kg IV BIW, mean (CV%), N = 1, read-out: AUC0−24): 13900 ng·h/mL | AUC(0-inf) (iv, 0.12 mg/kg, Cycle 1 Day 22, 0.12 mg/kg IV BIW, mean (CV%), N = 1): 14500 ng·h/mL | AUC(0-t) (iv, 0.12 mg/kg, Cycle 1 Day 22, 0.12 mg/kg IV BIW, mean (CV%), N = 1, read-out: AUClast): 13900 ng·h/mL
